Measured values reported in publication doi:10.1101/2022.04.14.488411v1 (biorxiv, 2022).
Read-outs that look alike come from different tables or passages of the source. Values belong to the molecule of their own block, whether it stands above or below them.

Tests used:
RPMI 8226 [1] = experiment: cells; conditions: Homo sapiens, RPMI-8226, 72 h, read-out: IC50 (uM)
ABCG2 [2] = target: T1, ABCG2 (Homo sapiens, UniProt Q9UNQ0); experiment: potentiation of TAK-243 cytotoxicity, Resazurin viability; type: cell-based
T1 sequence (Q9UNQ0 1-655): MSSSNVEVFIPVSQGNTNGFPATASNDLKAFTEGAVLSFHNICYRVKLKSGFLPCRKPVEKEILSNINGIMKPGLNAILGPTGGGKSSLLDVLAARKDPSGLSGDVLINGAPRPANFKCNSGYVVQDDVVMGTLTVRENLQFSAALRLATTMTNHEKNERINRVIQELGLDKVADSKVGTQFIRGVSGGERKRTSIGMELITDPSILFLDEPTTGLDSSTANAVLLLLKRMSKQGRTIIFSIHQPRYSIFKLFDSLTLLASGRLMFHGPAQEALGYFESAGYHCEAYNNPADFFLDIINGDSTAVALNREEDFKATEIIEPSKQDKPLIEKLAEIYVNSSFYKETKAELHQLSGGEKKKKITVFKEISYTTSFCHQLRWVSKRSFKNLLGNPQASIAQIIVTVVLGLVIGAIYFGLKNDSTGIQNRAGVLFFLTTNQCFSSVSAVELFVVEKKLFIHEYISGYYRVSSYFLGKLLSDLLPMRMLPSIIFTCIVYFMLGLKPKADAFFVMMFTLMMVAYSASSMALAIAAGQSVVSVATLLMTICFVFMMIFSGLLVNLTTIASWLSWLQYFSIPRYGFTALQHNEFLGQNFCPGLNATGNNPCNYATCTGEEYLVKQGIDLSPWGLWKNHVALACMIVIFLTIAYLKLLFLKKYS

ABCG2 [3] = experiment: cells; conditions: Homo sapiens, RPMI-8226, 72 h, read-out: IC50 (uM)
RPMI 8226 [4] = experiment: cells; conditions: Homo sapiens, RPMI-8226, 72 h, read-out: IC50 (uM); remark: listed apart in the source
RPMI 8226 [5] = experiment: cells; conditions: Homo sapiens, RPMI-8226, 72 h, read-out: IC50 (uM); remark: listed apart in the source
KMS11 = experiment: cells; design: species or system RPMI 8226; conditions: Homo sapiens, KMS-11, 72 h, read-out: IC50 (nM)
RPMI 8226 [6] = experiment: cells; design: species or system KMS11; conditions: Homo sapiens, RPMI-8226, 72 h, read-out: IC50 (nM), TAK-243 alone
MDAY-D2 = experiment: cells; conditions: Mus musculus, MDAY-D2, 72 h, read-out: IC50 (nM)
A549 = experiment: cells; conditions: Homo sapiens, A549, 72 h, read-out: IC50 (nM)
MCF7 = experiment: cells; conditions: Homo sapiens, MCF7, 72 h, read-out: IC50 (nM)
HEK293 = experiment: cells; conditions: Homo sapiens, HEK293, 72 h, read-out: IC50 (nM)
HepG2 = experiment: cells; conditions: Homo sapiens, HepG2, 72 h, read-out: IC50 (nM)
U937 = experiment: cells; conditions: Homo sapiens, U-937, 72 h, read-out: IC50 (nM)
OCI-AML2 = experiment: cells; conditions: Homo sapiens, OCI-AML2, 72 h, read-out: IC50 (nM)
K562 = experiment: cells; conditions: Homo sapiens, K562, 72 h, read-out: IC50 (nM)
MV4-11 = experiment: cells; conditions: Homo sapiens, MV4-11, 72 h, read-out: IC50 (nM)
NB4 = experiment: cells; conditions: Homo sapiens, NB-4, 72 h, read-out: IC50 (nM)
Jurkat = experiment: cells; conditions: Homo sapiens, Jurkat, 72 h, read-out: IC50 (nM)
OCI-M2 = experiment: cells; conditions: OCI-M2, 72 h, read-out: IC50 (nM)
RPMI 8226 [7] = experiment: cells; conditions: Homo sapiens, RPMI-8226, 72 h, read-out: IC50 (nM)
RPMI 8226 [8] = experiment: cells; design: species or system KMS11; conditions: Homo sapiens, RPMI-8226, 72 h, read-out: IC50 (nM), TAK-243 alone; remark: listed apart in the source

Compound: COc1cc(-c2cn(C)c(=O)c3cnccc23)c(OC)cc1CN(C)C [BI-9564]
- IC50 (ABCG2 [3]): > 10 µM
- IC50 (RPMI 8226 [4]): > 10 µM

Compound: COc1c(C)cc(NC(=O)c2nn(Cc3ccc(F)cc3)c3c2CN(C(=O)c2ccc[nH]2)C[C@]3(C)C(N)=O)cc1C [GSK-864]
- IC50 (RPMI 8226 [1]): > 10 µM

Compound: CO[C@H]1CC[C@H](n2c([C@@H]3CCCC(=O)N3c3ccc(F)c(F)c3)nc3cc(-c4c(C)noc4C)ccc32)CC1 [Inobrodib]
- IC50 (RPMI 8226 [4]): 7.62 µM

Compound: O=C1c2c(O)ccc(O)c2C(=O)c2c(NCCNCCO)ccc(NCCNCCO)c21 [MTX, mitoxantrone]
- IC50 (RPMI 8226 [5]): 0.0786 µM

Compound: COc1ccc(CCc2nc3cc(-c4c(C)noc4C)ccc3n2C[C@H](C)N2CCOCC2)cc1Cl [SGC-CBP30]
- IC50 (RPMI 8226 [1]): > 10 µM

Compound: NS(=O)(=O)OC[C@H]1C[C@@H](Nc2ccnc3cc(-c4cccc(SC(F)(F)F)c4)nn23)[C@H](O)[C@@H]1O [TAK-243]
- IC50 (KMS11): 685 nM
- IC50 (RPMI 8226 [6]): 558 nM
- IC50 (MDAY-D2): 1230 nM
- IC50 (A549): 1290 nM
- IC50 (MCF7): 404 nM
- IC50 (HEK293): 177 nM
- IC50 (HepG2): 60.1 nM
- IC50 (U937): 17.9 nM
- IC50 (OCI-AML2): 27.1 nM
- IC50 (K562): 6.43 nM
- IC50 (MV4-11): 19.4 nM
- IC50 (NB4): 10.1 nM
- IC50 (Jurkat): 12.2 nM
- IC50 (OCI-M2): 44 nM
- IC50 (RPMI 8226 [7]): 1370 nM
- IC50 (RPMI 8226 [8]): 578 nM

Compound: CCCc1cc(C)[nH]c(=O)c1CNC(=O)c1cc(-c2ccc(N3CCN(C(C)C)CC3)nc2)cc2c1cnn2C(C)C [UNC1999]
- IC50 (RPMI 8226 [1]): > 10 µM

More lines, main results first:

- IC50 (RPMI 8226 [1]): > 10 µM
Compound: Clc1cc2c(NC3CCCC3)nnc(-c3ccncc3)c2cc1Cl [A-196]
- apparent IC50 (ABCG2 [2]): 0.5218 µM

- IC50 (ABCG2 [3]): > 10 µM
- IC50 (RPMI 8226 [4]): > 10 µM
Compound: N#Cc1ccnc(N2C(=O)CC[C@H]2C(=O)N(c2cncc(F)c2)[C@H](C(=O)NC2CC(F)(F)C2)c2ccccc2Cl)c1 [Ivosidenib]

- IC50 (RPMI 8226 [1]): > 10 µM
Compound: COc1ccccc1C(=O)Nc1cc2c(cc1N1CCCC1)n(C)c(=O)n2C [PFI-4]

- IC50 (RPMI 8226 [5]): 0.997 µM
Compound: NS(=O)(=O)OC[C@@H]1C[C@@H](n2ccc3c(N[C@H]4CCc5ccccc54)ncnc32)C[C@@H]1O [Pevo, pevonedistat]
